Experimental data: US20020115704A1, “Treatment method” (priority 2000, published 2002)

Legend:
[1] = tested on: 5-HT1A receptors or 5-HT1D receptors; settings: cited from earlier work
[2] = tested on: dopaminergic, GABAergic, serotonergic (such as 5-HT1A) receptors; settings: cited from earlier work
[3] = tested on: female Macaca arctoides; test: Sexual behaviour of the male with the drug-treated female Macaca arctoides; type: in vivo; settings: for Sexual desire and arousal in female primates: conclusion from the male's behaviour with the treated female; for Copulations with ejaculation (FIG. 1A) / Copulations without ejaculation (FIG. 1B) / Total number of copulations, with and without ejaculation pooled (FIG. 1C) / Number of short time mounts (FIG. 1D): i.m. to the female, n=4, vs saline; for Copulations with ejaculation (FIG. 1A) / Copulations without ejaculation (FIG. 1B): atipamezole 0.03 and 0.3 mg/kg, apomorphine 0.125 and 0.25 mg/kg, or combinations, 20 min observation; for Total number of copulations, with and without ejaculation pooled (FIG. 1C) / Number of short time mounts (FIG. 1D): same doses; for Total number of copulations, with and without ejaculation pooled (FIG. 1C): atipamezole F2,11=5.00, p=0.05; for Number of short time mounts (FIG. 1D): atipamezole F2,11=7.55, p<0.03
Experimental: This example investigated whether the administration a specific alpha2-adrenoceptor antagonist, atipamezole, a dopamine agonist, apomorphine, or their combination into a female Macaca arctoides produces changes in the sexual behaviour of the female with a male.
The experiments were performed using four female and two male Macaca arctoides monkeys born in captivity. The ages of the adult females were 13 and 16 years and those of the aged females 23 and 25 years. The ages of the males were 14 and 23 years. The females were sexually mature and with normal hormonal cycles.
During the testing period, the monkeys were housed individually in stainless-steel cages. They were fed commercially available food twice each day, and water was always available. Females were weighed before the first injection of each series and doses were adjusted accordingly when appropriate. Sexual behaviour was tested between 11.00 and 16.00 h. The same test cage and testing procedure were used in all experiments. One experienced observer, blind to the treatment, viewed the animals at a distance of about 0.5 m from the cage.
During the testing period, the couple being tested was housed in a single case (0.6×0.9×1.2 m) with two compartments. During the first 10 min of each session, a sliding wall made of steel bars separated the male and the female in the test cage. The monkeys could see and touch each other through this wall. Between the testing sessions, the female being tested was housed in another room with no visual contact with the male.
After i.m. administration of the studied compounds to the female, the observation of the sexual behaviour began as described subsequently. Ten minutes after the end of drug administration, the sliding wall between the male and the female was pulled away and the observation of sexual activity continued for the next 20 min. At the end of the observation period, the sliding wall was replaced and the female was taken to her home cage in another room.
The occurrence and duration of the following parameters were observed: perineal investigation, mounting, masturbation, ejaculation, male and female grooming, eye contact, tying, yawning, self-scratching, direct male aggression towards the female and teeth grinding. A single mount leading to ejaculation was counted as ejaculation. A single mount not leading to ejaculation was counted as a short term mount. If the interval between mounts was >30 s, the mount was considered to be separate. In Macaca arctoides, male ejaculation reached in copulation or masturbation can be recognised clearly on the basis of its stereotypic manifestations as described in Linnankoski et al. (Arch. Sexual Behav. 10:207-222, 1981).
The experiments were performed once every other day for three days/week. In each female, the effect of atipamezole (Orion Pharma, Turku, Finland) alone (0.03 and 0.3 mg/kg and saline control) was tested during the first two weeks. The effect of apomorphine (Sigma, St.Louis, Mo.) alone (0.125 and 0.25 mg/kg and saline control) was tested during the next two weeks. The combination of a low dose of atipamezole (0.03 mg/kg) with a low dose apomorphine (0.125 mg/kg), a high dose of atipamezole (0.3 mg/kg) with a high dose of apomorphine (0.25 mg/kg), or saline control (two saline injections) was studied during the last two weeks. Owing to the difference in their pharmacokinetic properties, atipamezole (or its saline control) was always administered 10 min before testing session and apomorphine (or its saline control) 20 min before the testing session. The order of testing various doses of drugs and saline control was randomised within each two week testing period. Each dose or the combination was tested twice and the average result of these two sessions was used in final calculations. The experiments were performed in a double-blind fashion.

[4] = tested on: males; settings: cited from earlier work
[5] = tested on: α2-adrenoceptor; settings: cited from earlier work
[6] = tested on: ovariectomised, oestrogen+progesterone-primed female rats; settings: cited from earlier work
[7] = tested on: postmenopausal women; settings: cited from earlier work
[8] = tested on: males; settings: apomorphine: human males; cited from earlier work
[9] = tested on: menopausal women; settings: oral; cited from earlier work

COc1ccccc1N1CCN(CCN2C(=O)c3ccccc3C(C)(C)C2=O)CC1 [ARC 239]
Affinity on 5-HT1A receptors or 5-HT1D receptors [1]: have affinity

COC(=O)[C@@H]1[C@H]2C[C@H]3c4[nH]c5ccccc5c4CCN3C[C@@H]2CC[C@@H]1O [yohimbine]
Affinity for other neurotransmitter receptors (dopaminergic, GABAergic, serotonergic, benzodiazepine) [2]: has affinity

CCC1(c2c[nH]cn2)Cc2ccccc2C1 [atipamezole, 4-(2-ethyl-2,3-dihydro-1H-inden-2-yl)-1H-imidazole]
Sexual desire and arousal in female primates [3]: increases
Copulations with ejaculation (FIG. 1A) [3]: failed to be statistically significant
Copulations without ejaculation (FIG. 1B) [3]: failed to be statistically significant
Total number of copulations, with and without ejaculation pooled (FIG. 1C) [3]: significant increase
Number of short time mounts (FIG. 1D) [3]: dose-dependent increase
Affinity for other neurotransmitter receptors (dopaminergic, GABAergic, serotonergic, benzodiazepine) [2]: negligible affinity
Sexual activity (ejaculations produced by copulation and/or masturbation) [4]: increase
α2-/α1-adrenoceptor selectivity ratio [5]: high

COc1ccc2c(c1)CCN1C[C@H]3CCCN(S(C)(=O)=O)[C@H]3C[C@@H]21 [deleguamine, delequamine]
Affinity on 5-HT1A receptors or 5-HT1D receptors [1]: have affinity
Sexual behaviour, lordosis response [6]: facilitate

COC1(C2=NCCN2)COc2ccccc2O1 (centres unmarked) [RX821002, 2-methoxy idazoxan]
Affinity on 5-HT1A receptors or 5-HT1D receptors [1]: have affinity

CCCc1nn(C)c2c(=O)[nH]c(-c3cc(S(=O)(=O)N4CCN(C)CC4)ccc3OCC)nc12 [sildenafil]
Sexual function [7]: did not improve the sexual function significantly
Sexual arousal i.e. erections [8]: increase

CN1CCc2cccc3c2[C@H]1Cc1ccc(O)c(O)c1-3 [apomorphine]
Sexual desire and arousal in female primates [3]: ineffective
Copulations with ejaculation (FIG. 1A) [3]: failed to be statistically significant
Copulations without ejaculation (FIG. 1B) [3]: failed to be statistically significant
Total number of copulations, with and without ejaculation pooled (FIG. 1C) [3]: not significant
Number of short time mounts (FIG. 1D) [3]: no significant effect
Sexual behaviour, lordosis response [6]: facilitate
Sexual arousal i.e. erections [8]: increased

CC1c2ccccc2CN1CC1=NCCN1 (centres unmarked) [BRL 44408]
Affinity on 5-HT1A receptors or 5-HT1D receptors [1]: have affinity

c1ccc2c(c1)OCC(C1=NCCN1)O2 (centres unmarked) [Idazoxan]
Affinity on 5-HT1A receptors or 5-HT1D receptors [1]: have affinity

Cc1ccc(N(CC2=NCCN2)c2cccc(O)c2)cc1 [phentolamine]
Sexual arousal, such as self-reported lubrication [9]: mild improvement
Sexual arousal i.e. erections [8]: increase
